{"source": "patent US20260285850A1", "about": "“SUBSTITUTED OXAZOLIDINONES AND IMIDAZOLINONES AS HERBICIDES” (FMC CORPORATION, priority 2023, published 2026)", "assay_type_in_all_cases": "in vivo", "key": {"[1]": {"system": "barnyardgrass (Echinochloa crus-galli)", "experiment": "Test A preemergence soil spray, visual injury rating 0-100", "details": "10 days", "summary_of_the_method": "(§1)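 Directed preemergence spray onto seeded soil or postemergence spray onto 2-10 cm plants (loam plus sand); compound carried in surfactant-containing non-phytotoxic solvent. Injury rated by eye after 10 d greenhouse growth; 0 = no effect, 100 = complete control.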"}, "[2]": {"system": "blackgrass (Alopecurus myosuroides)", "experiment": "Test A preemergence soil spray, visual injury rating 0-100", "details": "10 days", "summary_of_the_method": "as §1"}, "corn (Zea mays) [3]": {"system": "corn (Zea mays)", "experiment": "Test A preemergence soil spray, visual injury rating 0-100", "details": "10 days", "summary_of_the_method": "as §1"}, "[4]": {"system": "green foxtail (Setaria viridis)", "experiment": "Test A preemergence soil spray, visual injury rating 0-100", "details": "10 days", "summary_of_the_method": "as §1"}, "kochia (Bassia scoparia) [5]": {"system": "kochia (Bassia scoparia)", "experiment": "Test A preemergence soil spray, visual injury rating 0-100", "details": "62 g ai/ha, 10 days, 0 = no effect, 100 = complete control", "summary_of_the_method": "as §1"}, "[6]": {"system": "oat, wild (wild oat, Avena fatua)", "experiment": "Test A preemergence soil spray, visual injury rating 0-100", "details": "10 days", "summary_of_the_method": "as §1"}, "[7]": {"system": "palmer (palmer amaranth, palmer pigweed, Amaranthus palmeri)", "experiment": "Test A preemergence soil spray, visual injury rating 0-100", "details": "10 days", "summary_of_the_method": "as §1"}, "[8]": {"system": "ragweed (common ragweed, Ambrosia artemisiifolia)", "experiment": "Test A preemergence soil spray, visual injury rating 0-100", "details": "10 days", "summary_of_the_method": "as §1"}, "[9]": {"system": "ryegrass, Italian (italian ryegrass, Lolium multiflorum)", "experiment": "Test A preemergence soil spray, visual injury rating 0-100", "details": "10 days", "summary_of_the_method": "as §1"}, "soybean (Glycine max) [10]": {"system": "soybean (Glycine max)", "experiment": "Test A preemergence soil spray, visual injury rating 0-100", "details": "10 days", "summary_of_the_method": "as §1"}, "[11]": {"system": "wheat (Triticum aestivum)", "experiment": "Test A preemergence soil spray, visual injury rating 0-100", "details": "10 days", "summary_of_the_method": "as §1"}, "[12]": {"system": "barnyardgrass (Echinochloa crus-galli)", "experiment": "Test A postemergence application, visual injury rating 0-100", "summary_of_the_method": "as §1"}, "[13]": {"system": "blackgrass (Alopecurus myosuroides)", "experiment": "Test A postemergence application, visual injury rating 0-100", "summary_of_the_method": "as §1"}, "corn (Zea mays) [14]": {"system": "corn (Zea mays)", "experiment": "Test A postemergence application, visual injury rating 0-100", "summary_of_the_method": "as §1"}, "[15]": {"system": "galium (catchweed bedstraw, Galium aparine)", "experiment": "Test A postemergence application, visual injury rating 0-100", "summary_of_the_method": "as §1"}, "[16]": {"system": "green foxtail (Setaria viridis)", "experiment": "Test A postemergence application, visual injury rating 0-100", "summary_of_the_method": "as §1"}, "[17]": {"system": "horseweed (Erigeron canadensis)", "experiment": "Test A postemergence application, visual injury rating 0-100", "summary_of_the_method": "as §1"}, "kochia (Bassia scoparia) [18]": {"system": "kochia (Bassia scoparia)", "experiment": "Test A postemergence application, visual injury rating 0-100", "summary_of_the_method": "as §1"}, "[19]": {"system": "oat, wild (wild oat, Avena fatua)", "experiment": "Test A postemergence application, visual injury rating 0-100", "summary_of_the_method": "as §1"}, "[20]": {"system": "palmer (palmer amaranth, palmer pigweed, Amaranthus palmeri)", "experiment": "Test A postemergence application, visual injury rating 0-100", "summary_of_the_method": "as §1"}, "[21]": {"system": "ragweed (common ragweed, Ambrosia artemisiifolia)", "experiment": "Test A postemergence application, visual injury rating 0-100", "summary_of_the_method": "as §1"}, "[22]": {"system": "ryegrass, Italian (italian ryegrass, Lolium multiflorum)", "experiment": "Test A postemergence application, visual injury rating 0-100", "summary_of_the_method": "as §1"}, "soybean (Glycine max) [23]": {"system": "soybean (Glycine max)", "experiment": "Test A postemergence application, visual injury rating 0-100", "summary_of_the_method": "as §1"}, "[24]": {"system": "wheat (Triticum aestivum)", "experiment": "Test A postemergence application, visual injury rating 0-100", "summary_of_the_method": "as §1"}, "[25]": {"system": "barnyardgrass (Echinochloa crusgalli)", "experiment": "Test B flooded paddy test, visual plant response rating 0-100", "details": "250 g ai/ha, Flood, applied to paddy water, evaluated after 13 days", "summary_of_the_method": "(§2)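 Visual scores versus untreated controls were recorded 13 days after treatment of greenhouse-held plants. At the 2-leaf stage, pots were flooded 3 cm above the soil surface and compounds added straight to the water.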"}, "[26]": {"system": "ducksalad (Heteranthera limosa)", "experiment": "Test B flooded paddy test, visual plant response rating 0-100", "details": "250 g ai/ha, Flood, applied to paddy water, evaluated after 13 days", "summary_of_the_method": "as §2"}, "rice (Oryza sativa)": {"system": "rice (Oryza sativa)", "experiment": "Test B flooded paddy test, visual plant response rating 0-100", "details": "250 g ai/ha, Flood, applied to paddy water, evaluated after 13 days", "summary_of_the_method": "as §2"}, "[27]": {"system": "sedge, umbrella (small-flower umbrella sedge, Cyperus difformis)", "experiment": "Test B flooded paddy test, visual plant response rating 0-100", "details": "250 g ai/ha, Flood, applied to paddy water, evaluated after 13 days", "summary_of_the_method": "as §2"}, "[28]": {"details": "62 g ai/ha, 0 = no effect, 100 = complete control"}, "[29]": {"details": "62 g ai/ha, postemergence, 10 days, 0 = no effect, 100 = complete control"}, "[30]": {"details": "Postemergence, 16 g ai/ha, greenhouse 10 days, 0 no effect, 100 complete control"}}}
{"smiles": "CCOC(=O)C1C=CC(NC(=O)C2(C)CN(c3cc(C)cc(C)c3)C(=O)O2)C1", "note": "(stereo not drawn) [Compound 116]", "values": [{"measurement": "Barnyardgrass plant response rating", "setting": "[1]; 16 g ai/ha, 0 to 100 scale", "value": 30}, {"measurement": "Barnyardgrass plant response rating (0-100)", "setting": "[1]; [28]", "value": 100}, {"measurement": "Blackgrass plant response rating", "setting": "[2]; 16 g ai/ha, 0 to 100 scale", "value": 0}, {"measurement": "Blackgrass plant response rating (0-100)", "setting": "[2]; [28]", "value": 70}, {"measurement": "Corn plant response rating", "setting": "corn (Zea mays) [3]; 16 g ai/ha, 0 to 100 scale", "value": 0}, {"measurement": "Corn plant response rating (0-100)", "setting": "corn (Zea mays) [3]; [28]", "value": 10}, {"measurement": "Foxtail, Green plant response rating", "setting": "[4]; 16 g ai/ha, 0 to 100 scale", "value": 0}, {"measurement": "Foxtail, Green plant response rating (0-100)", "setting": "[4]; [28]", "value": 80}, {"measurement": "Kochia plant response rating (0-100)", "setting": "kochia (Bassia scoparia) [5]", "value": 100}, {"measurement": "Oat, Wild plant response rating", "setting": "[6]; 16 g ai/ha, 0 to 100 scale", "value": 0}, {"measurement": "Oat, Wild plant response rating (0-100)", "setting": "[6]; [28]", "value": 50}, {"measurement": "Pigweed, Palmer plant response rating", "setting": "[7]; 16 g ai/ha, 0 to 100 scale", "value": 10}, {"measurement": "Pigweed, Palmer plant response rating (0-100)", "setting": "[7]; [28]", "value": 100}, {"measurement": "Ragweed plant response rating", "setting": "[8]; 16 g ai/ha, 0 to 100 scale", "value": 0}, {"measurement": "Ragweed plant response rating (0-100)", "setting": "[8]; [28]", "value": 0}, {"measurement": "Ryegrass, Italian plant response rating", "setting": "[9]; 16 g ai/ha, 0 to 100 scale", "value": 0}, {"measurement": "Ryegrass, Italian plant response rating (0-100)", "setting": "[9]; [28]", "value": 70}, {"measurement": "Soybean plant response rating", "setting": "soybean (Glycine max) [10]; 16 g ai/ha, 0 to 100 scale", "value": 0}, {"measurement": "Soybean plant response rating (0-100)", "setting": "soybean (Glycine max) [10]; [28]", "value": 0}, {"measurement": "Wheat plant response rating", "setting": "[11]; 16 g ai/ha, 0 to 100 scale", "value": 0}, {"measurement": "Wheat plant response rating (0-100)", "setting": "[11]; [28]", "value": 30}, {"measurement": "Barnyardgrass plant response rating (0-100)", "setting": "[12]; [29]", "value": 100}, {"measurement": "Barnyardgrass plant response rating (0 to 100 scale)", "setting": "[12]; [30]", "value": 70}, {"measurement": "Blackgrass plant response rating (0-100)", "setting": "[13]; [29]", "value": 90}, {"measurement": "Blackgrass plant response rating (0 to 100 scale)", "setting": "[13]; [30]", "value": 80}, {"measurement": "Corn plant response rating (0-100)", "setting": "corn (Zea mays) [14]; [29]", "value": 100}, {"measurement": "Corn plant response rating (0 to 100 scale)", "setting": "corn (Zea mays) [14]; [30]", "value": 40}, {"measurement": "Galium plant response rating (0-100)", "setting": "[15]; [29]", "value": 70}, {"measurement": "Galium plant response rating (0 to 100 scale)", "setting": "[15]; [30]", "value": 60}, {"measurement": "Foxtail, Green plant response rating (0-100)", "setting": "[16]; [29]", "value": 30}, {"measurement": "Foxtail, Green plant response rating (0 to 100 scale)", "setting": "[16]; [30]", "value": 10}, {"measurement": "Horseweed plant response rating (0-100)", "setting": "[17]; [29]", "value": 0}, {"measurement": "Horseweed plant response rating (0 to 100 scale)", "setting": "[17]; [30]", "value": 0}, {"measurement": "Kochia plant response rating (0-100)", "setting": "kochia (Bassia scoparia) [18]; [29]", "value": 60}, {"measurement": "Kochia plant response rating (0 to 100 scale)", "setting": "kochia (Bassia scoparia) [18]; [30]", "value": 20}, {"measurement": "Oat, Wild plant response rating (0-100)", "setting": "[19]; [29]", "value": 90}, {"measurement": "Oat, Wild plant response rating (0 to 100 scale)", "setting": "[19]; [30]", "value": 60}, {"measurement": "Pigweed, Palmer plant response rating (0-100)", "setting": "[20]; [29]", "value": 40}, {"measurement": "Pigweed, Palmer plant response rating (0 to 100 scale)", "setting": "[20]; [30]", "value": 0}, {"measurement": "Ragweed plant response rating (0-100)", "setting": "[21]; [29]", "value": 30}, {"measurement": "Ragweed plant response rating (0 to 100 scale)", "setting": "[21]; [30]", "value": 0}, {"measurement": "Ryegrass, Italian plant response rating (0-100)", "setting": "[22]; [29]", "value": 70}, {"measurement": "Ryegrass, Italian plant response rating (0 to 100 scale)", "setting": "[22]; [30]", "value": 20}, {"measurement": "Soybean plant response rating (0-100)", "setting": "soybean (Glycine max) [23]; [29]", "value": 60}, {"measurement": "Soybean plant response rating (0 to 100 scale)", "setting": "soybean (Glycine max) [23]; [30]", "value": 50}, {"measurement": "Wheat plant response rating (0-100)", "setting": "[24]; [29]", "value": 90}, {"measurement": "Wheat plant response rating (0 to 100 scale)", "setting": "[24]; [30]", "value": 40}, {"measurement": "Plant response rating, Barnyardgrass (0 to 100 scale, 0 is no effect and 100 is complete control)", "setting": "[25]", "value": 75}, {"measurement": "Plant response rating, Ducksalad (0 to 100 scale, 0 is no effect and 100 is complete control)", "setting": "[26]", "value": 45}, {"measurement": "Plant response rating, Rice (0 to 100 scale, 0 is no effect and 100 is complete control)", "setting": "rice (Oryza sativa)", "value": 50}, {"measurement": "Plant response rating, Sedge, Umbrella (0 to 100 scale, 0 is no effect and 100 is complete control)", "setting": "[27]", "value": 55}]}
